Laboratory results published in PMC4861903, “Synthesis of a highly water-soluble acacetin prodrug for treating experimental atrial fibrillation in beagle dogs” (Scientific Reports, 2016).

Experiment: Ex vivo bioconversion of acacetin prodrug in rat plasma
Assay type: in vitro ADME
Conditions: 37 °C, n = 3
Experimental: The ex vivo bioconversion of acacetin prodrug was determined in rat plasma or rat hepatic microsome that contains high content alkaline phosphatase, as described previously[30] and in Supplemental Materials. The in vivo bioconversion of acacetin prodrug was determined in beagle dogs as described in Supplemental Materials. […]
Bioconversion of acacetin prodrug in rat plasma and hepatic microsomes
Hydrolysis of acacetin prodrug was initially determined in rat plasma. The 100 µL rat plasma samples containing 5 µg/mL prodrug was prepared at 4 °C and then incubated in a water bath at 37 °C and continuously shaken at 60 rpm. The plasma samples were collected at 0, 5, 15, 30, 60, 120, 180, 240 and 360 min, respectively. The reaction was terminated by adding 1 mL cold methanol containing the IS solution (50 ng/mL pentamethylquercetin). […]
The reaction mixture […]
was prepared in 50 mM Tris-HCl buffer (pH = 7.4) with 1 mM NADPH (nicotinamide adenine dinucleotide phosphate) and 0.5 mg/mL (total protein) microsomes. Prodrug solutions were added to the microsomes reaction mixture with a final concentration of 5 µg/mL. The reaction solution was incubated in a water bath at 37℃ and shaken at 60 rpm for 1 h. The samples were collected at 0, 1, 2, 15, 30 and 60 min. […] After centrifugation at 12000 g for 30 min, the supernatant was immediately analyzed by HPLC. […]

COc1ccc(-c2cc(=O)c3c(O)cc(OP(=O)([O-])[O-])cc3o2)cc1.[Na+].[Na+] [acacetin prodrug, phosphate sodium salt of acacetin]
prodrug converted into acacetin (60 min incubation): 50%
prodrug converted into acacetin (within 240 min incubation): 100%
